The source of these data is ChEMBL document CHEMBL1201862, “PubChem BioAssay data set” (2004).

Test [1] addresses T1, Tyrosine-protein phosphatase non-receptor type 22 (Homo sapiens, UniProt Q9Y2R2).
T1 sequence (Q9Y2R2 whole entry): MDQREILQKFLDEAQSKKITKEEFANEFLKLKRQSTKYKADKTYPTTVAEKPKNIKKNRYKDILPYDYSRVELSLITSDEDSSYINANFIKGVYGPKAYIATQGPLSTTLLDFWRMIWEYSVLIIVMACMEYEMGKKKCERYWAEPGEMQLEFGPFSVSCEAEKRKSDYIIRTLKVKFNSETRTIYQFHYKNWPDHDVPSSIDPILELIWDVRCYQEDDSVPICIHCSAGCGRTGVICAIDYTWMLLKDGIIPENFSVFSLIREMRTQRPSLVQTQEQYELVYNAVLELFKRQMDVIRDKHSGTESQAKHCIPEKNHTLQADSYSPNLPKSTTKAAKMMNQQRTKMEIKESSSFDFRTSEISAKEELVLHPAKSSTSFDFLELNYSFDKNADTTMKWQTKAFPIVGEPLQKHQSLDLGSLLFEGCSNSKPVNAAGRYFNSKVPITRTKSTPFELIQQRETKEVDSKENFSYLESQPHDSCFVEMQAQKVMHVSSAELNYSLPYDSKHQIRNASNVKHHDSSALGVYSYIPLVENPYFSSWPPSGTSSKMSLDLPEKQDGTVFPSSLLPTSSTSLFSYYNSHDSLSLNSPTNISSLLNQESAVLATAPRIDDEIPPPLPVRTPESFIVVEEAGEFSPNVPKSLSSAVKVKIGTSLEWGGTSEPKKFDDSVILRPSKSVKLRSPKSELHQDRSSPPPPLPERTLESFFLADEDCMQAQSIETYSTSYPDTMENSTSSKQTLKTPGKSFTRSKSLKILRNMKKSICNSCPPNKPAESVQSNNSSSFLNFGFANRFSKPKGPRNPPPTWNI
The test is described as follows: SAR LYP1 Fluorescent Assay using OMFP substrate for In Vitro dose response studies - Set 2. [Related pubchem assays (depositor defined):AID1779, AID1784, AID2140, AID449726, AID488869]. Format: functional.

Test [2] has as its target T1, Tyrosine-protein phosphatase non-receptor type 22. Kind of test: PubChem AID 2140.
Test [3] has the same target. Type of test: functional.
Test [4] has the same target. Kind of test: LYP1 Fluorescent Assay using OMFP substrate for In Vitro dose response studies. [Related pubchem assays (depositor defined):AID1779, AID1784, AID435024].
Test [5] concerns the target Voltage-gated N-type calcium channel alpha-1B subunit/Amyloid beta A4 precursor protein-binding family A member 1 (Homo sapiens, UniProt Q00975+Q02410). Type of test: protein assay.
The target of test [6] is T1, Tyrosine-protein phosphatase non-receptor type 22. Type of test: functional. The source holds these as a separate data set.
The target is the same in test [7]. The test is described as follows: SAR LYP1 Fluorescent Assay using OMFP substrate for In Vitro dose response studies - Set 3. [Related pubchem assays (depositor defined):AID1779, AID1784, AID2140, AID2686]. Type of test: functional.
Test [8] in a line: cytotoxicity in HEK-293T cells, dose response, cytotoxicity control for BCR NF-kB inhibitor project, luminescence, B-cell screen hits (AID 489021).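 Also: HEK-293T cells carrying an NF-kB luciferase reporter; cells exposed to compound for about 14 hours before viability readout.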 Format: functional, cell-based.
Test [9] deals with T2, Tyrosine-protein phosphatase non-receptor type 7 (Homo sapiens, UniProt P35236).
T2 sequence (P35236 whole entry): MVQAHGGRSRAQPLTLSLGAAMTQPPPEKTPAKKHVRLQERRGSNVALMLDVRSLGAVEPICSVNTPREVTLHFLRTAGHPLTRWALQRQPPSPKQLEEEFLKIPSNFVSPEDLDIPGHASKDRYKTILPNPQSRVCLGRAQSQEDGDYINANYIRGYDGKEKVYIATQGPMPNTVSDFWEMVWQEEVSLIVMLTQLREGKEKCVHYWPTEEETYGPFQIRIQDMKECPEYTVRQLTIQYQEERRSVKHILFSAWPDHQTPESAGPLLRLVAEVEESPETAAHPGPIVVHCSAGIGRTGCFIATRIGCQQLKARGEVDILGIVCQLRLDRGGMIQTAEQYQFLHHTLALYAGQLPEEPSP
Type of test: functional.

Test [10] is described as follows: Luminescence Cell-Based Dose Confirmation HTS to Identify Activators of 5'UTR Stem-Loop Driven Alpha-Synuclein mRNA Translation in H4 Neuroglioblastoma Cells. [Related pubchem assays: 1829 (Project Summary), 1814 (Primary HTS)]. Format: functional.
The target in test [11] is T3, Mannose-6-phosphate isomerase (Homo sapiens, UniProt P34949).
T3 sequence (P34949 whole entry): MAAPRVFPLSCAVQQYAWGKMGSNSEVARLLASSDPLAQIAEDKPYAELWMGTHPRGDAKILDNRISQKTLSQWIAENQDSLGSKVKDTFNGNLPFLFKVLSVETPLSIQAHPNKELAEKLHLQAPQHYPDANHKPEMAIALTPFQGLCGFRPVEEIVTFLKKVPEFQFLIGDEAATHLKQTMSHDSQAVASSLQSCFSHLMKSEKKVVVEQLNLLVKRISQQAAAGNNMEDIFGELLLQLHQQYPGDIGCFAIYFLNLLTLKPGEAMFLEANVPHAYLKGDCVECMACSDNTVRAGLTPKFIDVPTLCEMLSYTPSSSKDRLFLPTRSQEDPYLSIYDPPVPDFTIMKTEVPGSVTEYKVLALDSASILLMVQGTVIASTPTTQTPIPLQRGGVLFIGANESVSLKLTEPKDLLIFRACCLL
Kind of test: human PMI inhibitors, high substrate, primary screen, biochemical, fluorescence intensity, high mannose 6-phosphate (AID 1220).

The next test deals with T4, Caspase-3 (Homo sapiens, UniProt P42574).
T4 sequence (P42574 whole entry): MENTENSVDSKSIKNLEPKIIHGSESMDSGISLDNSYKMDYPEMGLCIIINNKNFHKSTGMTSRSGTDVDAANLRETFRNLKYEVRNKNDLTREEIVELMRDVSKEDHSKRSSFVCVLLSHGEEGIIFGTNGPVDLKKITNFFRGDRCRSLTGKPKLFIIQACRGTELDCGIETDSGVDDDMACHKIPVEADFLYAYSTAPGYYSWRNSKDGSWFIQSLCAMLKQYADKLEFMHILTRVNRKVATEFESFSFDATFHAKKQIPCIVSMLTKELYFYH
Type of test: functional.

Test [12] in a line: growth suppression of PTEN-null colon cells, dose response, cell-based, HCT116 PTEN knockout (AID 1047).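 Also: HCT116 colon tumor cells with PTEN knocked out; cells exposed to compound for 60 hours before readout; potency for loss of cell viability measured by luminescence.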 Type of test: functional.
A short description of test [13]: cytotoxicity in HPDE-C7 cells, cell-based, fluorescence, HTS (AID 430). Type of test: functional. The note with it: Homo sapiens.
The next test deals with H4. Kind of test: Luminescence Cell-Based Dose Response HTS to Identify Activators of 5'UTR Stem-Loop Driven Prion Protein mRNA Translation in H4 Neuroglioblastoma Cells. [Related pubchem assays: 1829 (Project Summary), 1814 (Primary HTS)]. Type of test: functional. The note with it: Homo sapiens.
Test [14] is described as follows: growth suppression of beta-catenin-knockout colon cells, dose response, cell-based, HCT116, human colon tumor (AID 1045).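 Also: HCT116 colon tumor cells with beta catenin knocked out; cells exposed to compound for 60 hours.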 Type of test: functional.
The test system of the next test is Vero. Kind of test: Vero cell cytotoxicity, cytotoxicity control for flavivirus capping enzyme inhibitors (AID 588742). Format: functional. The note with it: Chlorocebus sabaeus.
Test [15] is described as follows: Luminescence Cell-Based Dose Response HTS to Identify Activators of Luciferase Translation or Activity in H4 […] Cells. [Related pubchem assays: 1829 (Project Summary), 1814 (Primary HTS)]. Type of test: functional.

Active and inactive are the calls of the source.

Chain of Voltage-gated N-type calcium channel alpha-1B subunit/Amyloid beta A4 precursor protein-binding family A member 1 (Q00975 whole entry): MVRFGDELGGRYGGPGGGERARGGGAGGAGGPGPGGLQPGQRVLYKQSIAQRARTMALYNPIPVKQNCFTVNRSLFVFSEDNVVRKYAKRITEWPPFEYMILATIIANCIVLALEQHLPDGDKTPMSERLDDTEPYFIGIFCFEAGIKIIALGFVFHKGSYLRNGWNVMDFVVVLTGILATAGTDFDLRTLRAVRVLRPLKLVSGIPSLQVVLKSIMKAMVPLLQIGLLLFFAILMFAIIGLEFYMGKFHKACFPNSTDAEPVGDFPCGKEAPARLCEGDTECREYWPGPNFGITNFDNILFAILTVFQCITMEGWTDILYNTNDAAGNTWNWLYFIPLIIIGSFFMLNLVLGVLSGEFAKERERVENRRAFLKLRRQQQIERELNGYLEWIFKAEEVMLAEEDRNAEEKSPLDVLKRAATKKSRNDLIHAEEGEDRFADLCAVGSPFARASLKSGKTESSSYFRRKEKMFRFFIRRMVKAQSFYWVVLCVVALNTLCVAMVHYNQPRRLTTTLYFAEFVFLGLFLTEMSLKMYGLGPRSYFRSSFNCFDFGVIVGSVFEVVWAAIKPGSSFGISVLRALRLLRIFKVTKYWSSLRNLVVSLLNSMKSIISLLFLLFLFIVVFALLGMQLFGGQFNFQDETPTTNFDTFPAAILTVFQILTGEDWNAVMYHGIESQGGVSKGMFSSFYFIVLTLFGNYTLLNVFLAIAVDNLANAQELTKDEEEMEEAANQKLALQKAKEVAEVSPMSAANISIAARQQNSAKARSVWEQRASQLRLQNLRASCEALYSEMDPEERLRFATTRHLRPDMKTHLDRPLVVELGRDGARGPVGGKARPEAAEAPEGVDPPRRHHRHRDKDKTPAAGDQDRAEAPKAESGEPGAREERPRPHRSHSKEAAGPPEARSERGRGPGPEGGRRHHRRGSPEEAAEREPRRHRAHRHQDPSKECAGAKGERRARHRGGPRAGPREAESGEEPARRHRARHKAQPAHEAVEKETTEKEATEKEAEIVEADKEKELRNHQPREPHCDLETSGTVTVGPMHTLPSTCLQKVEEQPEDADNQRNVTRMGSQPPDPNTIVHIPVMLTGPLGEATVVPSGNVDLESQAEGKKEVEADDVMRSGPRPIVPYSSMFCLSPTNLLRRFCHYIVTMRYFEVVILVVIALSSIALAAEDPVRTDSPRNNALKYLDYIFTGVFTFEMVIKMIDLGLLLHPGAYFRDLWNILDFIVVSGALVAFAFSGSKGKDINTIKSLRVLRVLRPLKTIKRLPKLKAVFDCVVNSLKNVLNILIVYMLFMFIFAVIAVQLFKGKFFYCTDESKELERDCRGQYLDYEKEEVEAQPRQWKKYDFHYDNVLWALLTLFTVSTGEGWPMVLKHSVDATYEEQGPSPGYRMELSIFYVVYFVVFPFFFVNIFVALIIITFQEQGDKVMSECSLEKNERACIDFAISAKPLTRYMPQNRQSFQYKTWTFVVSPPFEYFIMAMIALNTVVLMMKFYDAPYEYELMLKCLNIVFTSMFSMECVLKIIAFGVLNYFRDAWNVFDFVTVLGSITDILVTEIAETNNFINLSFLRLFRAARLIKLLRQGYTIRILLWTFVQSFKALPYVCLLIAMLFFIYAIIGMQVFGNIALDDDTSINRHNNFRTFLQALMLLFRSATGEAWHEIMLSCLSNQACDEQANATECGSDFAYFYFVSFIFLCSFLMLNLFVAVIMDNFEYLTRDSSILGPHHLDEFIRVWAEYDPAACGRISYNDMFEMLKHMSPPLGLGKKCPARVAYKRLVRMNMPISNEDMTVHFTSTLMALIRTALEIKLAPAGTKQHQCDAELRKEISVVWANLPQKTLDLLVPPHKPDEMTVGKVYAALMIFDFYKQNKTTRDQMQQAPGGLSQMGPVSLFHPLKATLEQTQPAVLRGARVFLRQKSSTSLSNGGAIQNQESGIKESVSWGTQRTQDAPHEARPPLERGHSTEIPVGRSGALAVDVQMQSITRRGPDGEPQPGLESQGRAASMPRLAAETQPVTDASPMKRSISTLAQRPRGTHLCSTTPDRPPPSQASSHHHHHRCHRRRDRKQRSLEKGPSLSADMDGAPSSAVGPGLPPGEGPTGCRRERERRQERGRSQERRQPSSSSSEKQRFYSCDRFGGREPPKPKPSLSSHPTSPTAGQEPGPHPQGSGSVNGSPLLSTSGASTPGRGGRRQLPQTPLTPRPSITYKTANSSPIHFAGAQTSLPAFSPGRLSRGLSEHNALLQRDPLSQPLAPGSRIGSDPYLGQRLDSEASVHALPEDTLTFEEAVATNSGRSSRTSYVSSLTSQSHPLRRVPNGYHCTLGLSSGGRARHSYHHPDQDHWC
Chain of Voltage-gated N-type calcium channel alpha-1B subunit/Amyloid beta A4 precursor protein-binding family A member 1 (Q02410 whole entry): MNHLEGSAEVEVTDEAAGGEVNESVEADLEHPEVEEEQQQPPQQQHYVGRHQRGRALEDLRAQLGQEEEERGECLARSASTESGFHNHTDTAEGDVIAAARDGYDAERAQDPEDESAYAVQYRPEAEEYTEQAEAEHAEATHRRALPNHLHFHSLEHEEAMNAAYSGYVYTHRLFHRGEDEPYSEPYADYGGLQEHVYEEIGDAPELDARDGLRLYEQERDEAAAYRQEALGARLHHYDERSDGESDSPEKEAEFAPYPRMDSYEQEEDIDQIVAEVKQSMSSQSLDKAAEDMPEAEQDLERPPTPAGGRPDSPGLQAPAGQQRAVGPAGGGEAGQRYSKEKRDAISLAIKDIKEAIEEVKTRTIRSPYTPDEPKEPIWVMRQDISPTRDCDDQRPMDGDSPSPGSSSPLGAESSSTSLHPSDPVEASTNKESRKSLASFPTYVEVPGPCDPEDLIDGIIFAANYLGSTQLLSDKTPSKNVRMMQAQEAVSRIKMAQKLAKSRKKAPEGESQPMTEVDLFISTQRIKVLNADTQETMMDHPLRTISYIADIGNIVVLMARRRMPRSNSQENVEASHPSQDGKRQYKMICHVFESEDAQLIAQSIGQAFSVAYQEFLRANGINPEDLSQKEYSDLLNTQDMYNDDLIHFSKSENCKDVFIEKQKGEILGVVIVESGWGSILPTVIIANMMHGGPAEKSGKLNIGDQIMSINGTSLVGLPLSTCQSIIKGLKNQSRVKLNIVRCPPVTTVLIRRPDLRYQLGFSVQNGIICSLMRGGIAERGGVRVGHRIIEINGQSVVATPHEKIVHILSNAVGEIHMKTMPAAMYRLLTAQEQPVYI

One may read the IC50 as the point on the concentration scale where inhibition reaches its midpoint. As for `COc1ccc(/C=C2\SC(=S)N(CCC(=O)Nc3ccc(C(=O)O)cc3)C2=O)cc1OC`, the IC50 was 1.08 µM (active) in test [1]; 7.46 µM (active) in test [2]; 2.75 µM (active) in test [3]; 4.66 µM (active) in test [4]; 7.89 µM (active) in test [5]; 3.74 µM (active) in test [6]. Also, the figures for the IC50 in [7], in test [8] and in test [9] were 4.09 µM (active), > 80 µM (inactive) and 3.78 µM (active), respectively.

For orientation: EC50 means the concentration needed to bring the measured effect to its halfway point. Broadly, the CC50 is the concentration giving 50% cytotoxicity. For `COc1ccc(Nc2ccc3c(c2)=NC2(CCCCC2)[N+]=3[O-])cc1`, the half-maximal effective concentration (EC50) was > 120 µM (not active) in test [10]; 2.49 µM (active) in test [12]; 6.89 µM (active) in [13]; 79.5 µM (active) in the test with H4; 1.89 µM (active) in test [14]; > 120 µM (not active) in test [15]. The results for the half-maximal inhibitory concentration (IC50) (in [11]; on Caspase-3) were > 50 µM (not active) and 88.4 µM (active), respectively. In the test with Vero, the CC50 was 10.8 µM (active).
